# Assay results taken from patent US20040198810A1 (H. Lundbeck A/S, priority 2001, published 2004).
# Legend:
# Assay type in all cases: in vivo
# [1] = system: primary care patients with major depression disorder; test: 8-week, double-blind, randomised, placebo-controlled, flexible-dose clinical study; conditions: Week 1 (p=0.023) to Week 4 (p=0.002), observed cases
# Source text: (§1) This has i.a. been found in the Chronic Mild Stress model (Willner P., Psychopharmachology 1997, 134, 319-329).
# A total of 471 patients were randomised into the study. The all-patient-treated set comprised 469 patients and the full-analysis set comprised 468 patients.
# There was an approximately 3 to 1 ratio of women to men in each treatment group, and almost all patients were Caucasian. The mean age was 43 years (SD 11). At baseline, the mean MADRS total score was approximately 29 for the treatment group, which signifies moderate to severely ill patients.
# [2] = fixed dose studies (MADRS rating scale and Clinical Global Impression); conditions: escitalopram in a dose of 10 mg
# [3] = system: Chronic Mild Stress model; test: Chronic Mild Stress model; conditions: animal models
# Source text: as §1
structure (smiles),measurement,setting,value
"CN(C)CCC[C@@]1(c2ccc(F)cc2)OCc2cc(C#N)ccc21 [escitalopram, (S)-1-[3-(dimethylamino)propyl]-1-(4-fluorophenyl)-1,3-dihydro-5-isobenzofurancarbonitrile]","therapeutic effect versus placebo, adjusted mean change in MADRS total score",[1],significantly superior therapeutic effect
same,effect as determined by the MADRS rating scale and Clinical Global Impression (severity as well as improvement),[2],at least same effect as citalopram in a dose of 40 mg
same,speed of response,[3],faster response than citalopram-racemate
